Data published in US20120178147A1, “MICROBIAL CULTURES AND METHODS FOR ANAEROBIC BIOREMEDIATION” (priority 2009, published 2012).

System: sediment microcosms
Assay: Effect of TCC, TCS and BES on TCE dechlorination in sediment microcosms and cultures derived from them
Assay type: cell-based
Settings: for effect on TCE reductive dechlorination in microcosms: addition of 20 μg/L TCC and TCS; for effect on TCE dechlorination rates in sediment-free cultures: cultures from microcosms amended with TCC, TCS, BES
Experimental: In this study, microcosm is defined as: anaerobic airtight serum bottles with sediment samples, anaerobic medium, electron donor, and a chlorinated compound used as an electron acceptor. Four microcosms were set up in the anaerobic glove chamber with H2 concentration of 3% (Coy laboratory products Inc. Grass Lake, Mich.). Ten gram of homogeneously mixed sediment from either core A or core D were transferred independently into a 160 ml sterile serum bottle, and 90 ml anaerobic media with vitamin solution and 2 mM lactate were added. One hundred μL of 20 mg/L TCC stock solution in methanol and 100 μL of 20 mg/L TCS stock solution were added by pipette (Eppendorf, Calif.) to two of the four microcosms. Microcosms were capped with thick black butyl rubber stoppers and aluminum crimps. 4.5 μL pure TCE was injected with airtight syringe (Hamilton Company, Reno, Nev.) into each serum bottle. On day 130, in order to inhibit methane production in the sediment microcosms, 25 mM BES was added in to sediment-A microcosm and sediment-D microcosm with TCC and TCS with airtight syringe (Hamilton Company, Reno, Nev.). Microcosms were stored in the dark and incubated at 30° C.
Production of Sediment-Free Cultures. To establish sediment-free cultures from core A and core D sediment microcosms, the microcosms were shaken vigorously, and the solids were allowed to settle down. Then, using 1-inch, 21-gauge sterile needles, […] liquid (10 ml) were transferred into 89 ml sterile medium with the following contents: anaerobic medium, ATCC vitamin mix, and vitamin B12, in 160-ml serum bottles. Then, 1 ml each of 500-mM lactate stock solution and 35-μL TCE stock solution (1 mol/L in methanol) were added to form a 100 ml culture in 160-ml serum bottle. Three sediment cultures were derived from each sediment microcosm, and 12 sediment-free cultures were produced (FIG. 1). For organizational purposes, we refer to the sediment-free cultures generated from sediment-A microcosms as SCA and the sediment free cultures generated from sediment-D microcosms as DehaloR̂2, in the figures herein, the DehaloR̂2 are referred to as “SCD”. Thus, the term “SCD” and DehaloR̂2 are used interchangeably herein as the composition “SCD” was renamed “DehaloR̂2” during the course of investigation. The sediment-free cultures were kept in the dark and incubated at 30° C. After all the chlorinated electron acceptors were consumed, the cultures were re-spiked with TCE and electron donors.
BES (2-bromoethanesulfonate) is an efficient inhibitor for the metabolism of methanogens in methanogenetic cultures because it is a structural analog and competitive inhibitor of coenzyme M, which is only found in methanogens (Dimarco et al., 1990; Sparling and Daniels, 1987). Different concentrations of BES have been used by researchers. […] In this study, in order to determine if the cause for incomplete reductive dechlorination was competition for electron donor between methanogens and TCE dechlorinating microorganisms in the microcosms, I added 25 mM BES, 70 μmol of TCE, and 5 mM lactate into two sediment microcosms, sediment-A and sediment-D with TCC and TCS. In two other sediment microcosms, I added 70 μmol of TCE and 5 mM lactate without BES.

| Structure (SMILES) | effect on TCE reductive dechlorination in microcosms | effect on TCE dechlorination rates in sediment-free cultures |
| --- | --- | --- |
| O=C(Nc1ccc(Cl)cc1)Nc1ccc(Cl)c(Cl)c1 [TCC, 3-(4-chlorophenyl)-1-(3,4-dichlorphenyl) urea] | can be neglected | slow down TCE dechlorination rates |
| Oc1cc(Cl)ccc1Oc1ccc(Cl)cc1Cl [TCS, 5-chloro-2-[2,4-dichloro-phenoxy]-phenol] | can be neglected | slow down TCE dechlorination rates |
